According to patent publication US9452997B2, “Piperidine and piperazine derivatives as autotaxin inhibitors” (Merck Patent GmbH, priority 2009, dated 2016):

Target: T1, Recombinant autotaxin (Homo sapiens, UniProt Q13822)
T1 construct: made in house; host or cells: Hi5 insect cells (baculovirus)
Experiment: Autotaxin assay (Amplex Red, LPC substrate)
Type: biochemical
Conditions: recombinant autotaxin, LPC substrate, Amplex Red detection; values given as upper bounds
Method in brief: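 Recombinant autotaxin (Hi5 baculovirus, 16 ng) pre-incubated with compound 30 min at 22° C, then reacted with 75 μM egg LPC for 90 min at 37° C. Choline released is coupled to H2O2 and Amplex Red fluorescence (ex 485/em 612 nm). IC50 from ten 1:3 dilutions from 30 μM, duplicates, normalised to 500 μM C14 LPA.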

How did the IC50 turn out when `O=C(NC1CCC(N2CCN(C(=O)OCc3ccc(C(F)(F)F)c(F)c3)CC2)CC1)c1ccc2[nH]nnc2c1` (stereo not drawn) [Compound 189, 4-{4-[(1H-Benzotriazole-5-carbonyl)-amino]-cyclohexyl}-piperazine-1-carboxylic acid 3-fluoro-4-trifluoromethyl-benzyl ester] was run?
The IC50 was under 10 µM.

For `Cc1ccc(C(C)CC(=O)N2CCN(C3CCN(C(=O)c4ccc5[nH]nnc5c4)CC3)CC2)cc1C` (stereo not drawn) [Compound 176, 1-{4-[1-(1H-Benzotriazole-5-carbonyl)-piperidin-4-yl]-piperazin-1-yl}-3-(3,4-dimethyl-phenyl)-butan-1-one], which IC50 is on record?
Its IC50 is under 30 µM.

With `O=C(CCc1ccc(C(F)(F)F)cc1)N1CCC(N2CCN(C(=O)c3ccc4[nH]nnc4c3)CC2)CC1` [Compound 50, 1-{4-[4-(1H-Benzotriazole-5-carbonyl)-piperazin-1-yl]-piperidin-1-yl}-3-(4-trifluoromethyl-phenyl)-propan-1-one] as the compound, how does the IC50 read?
The IC50 was under 10 µM.

For `O=C(OCc1ccc(C(F)(F)F)cc1F)N1CCC(N2CCN(C(=O)c3ccc4[nH]nnc4c3)CC2)CC1` [Compound 73, 4-[4-(1H-Benzotriazole-5-carbonyl)-piperazin-1-yl]-piperidine-1-carboxylic acid 2-fluoro-4-trifluoromethyl-benzyl ester], which IC50 is on record?
The IC50 was under 1 µM.

For `Cc1nc(-c2ccc(Cl)cc2)sc1COC(=O)N1CCN(C2CCN(C(=O)c3ccc4[nH]nnc4c3)CC2)CC1` [Compound 174, 4-[1-(1H-Benzotriazole-5-carbonyl)-piperidin-4-yl]-piperazine-1-carboxylic acid 2-(4-chloro-phenyl)-4-methyl-thiazol-5-ylmethyl ester], which IC50 is on record?
Its IC50 is under 10 µM.

With `O=C(NC1CCC(N2CCN(C(=O)OCc3cc(C(F)(F)F)cc(C(F)(F)F)c3)CC2)CC1)c1ccc2[nH]nnc2c1` (stereo not drawn) [Compound 186, 4-{4-[(1H-Benzotriazole-5-carbonyl)-amino]-cyclohexyl}-piperazine-1-carboxylic acid 3,5-bis-trifluoromethyl-benzyl ester] as the compound, how does the IC50 read?
The IC50 was under 1 µM.

How did the IC50 turn out when `O=C(CCc1ccc(Cl)cc1F)N1CCN(C2CCN(C(=O)c3ccc4[nH]nnc4c3)CC2)CC1` [Compound 67, 1-{4-[1-(1H-Benzotriazole-5-carbonyl)-piperidin-4-yl]-piperazin-1-yl}-3-(4-chloro-2-fluoro-phenyl)-propan-1-one] was run?
Its IC50 is under 10 µM.

Which IC50 does the source give for `Cc1cc(C)cc(COC(=O)N2CCN(C3CCN(C(=O)c4ccc5[nH]nnc5c4)CC3)CC2)c1` [Compound 147, 4-[1-(1H-Benzotriazole-5-carbonyl)-piperidin-4-yl]-piperaizne-1-carboxylic acid 3,5-dimethyl-benzyl ester] here?
The IC50 was under 1 µM.

How did the IC50 turn out when `O=C(OCc1cccc(OC(F)(F)F)c1)N1CCN(C2CCN(C(=O)c3ccc4[nH]nnc4c3)CC2)CC1` [Compound 128, 4-[1-(1H-Benzotriazole-5-carbonyl)-piperidin-4-yl]-piperazine-1-carboxylic acid 3-trifluoromethoxy-benzyl ester] was run?
The IC50 was under 1 µM.

With `O=C(OCc1ccc(OC(F)F)cc1)N1CCN(C2CCN(C(=O)c3ccc4[nH]nnc4c3)CC2)CC1` [Compound 167, 4-[1-(1H-Benzotriazole-5-carbonyl)-piperidin-4-yl]-piperazine-1-carboxylic acid 4-difluoromethoxy-benzyl ester] as the compound, how does the IC50 read?
The IC50 was under 1 µM.

How did the IC50 turn out when `Cc1c(Br)cc(CCC(=O)N2CCN(C3CCN(C(=O)c4ccc5[nH]nnc5c4)CC3)CC2)cc1Br` [Compound 130, 1-{4-[1-(1H-Benzotriazole-5-carbonyl)-piperidin-4-yl]-piperazin-1-yl}-3-(3,5-dibromo-4-methyl-phenyl)-propan-1-one] was run?
The IC50 was under 10 µM.

Which IC50 does the source give for `O=C(Nc1cc(Cl)cc(Cl)c1)N1CCN(C2CCN(C(=O)c3ccc4[nH]nnc4c3)CC2)CC1` [Compound 31, 4-[1-(1H-Benzotriazole-5-carbonyl)-piperidin-4-yl]-piperazine-1-carboxylic acid (3,5-dichloro-phenyl)-amide] here?
Its IC50 is under 30 µM.

`O=C(c1ccc2[nH]nnc2c1)N1CCC(N2CCN(C(=O)C3CC3c3ccc(Cl)cc3)CC2)CC1` (stereo not drawn) [Compound 179, (1H-Benzoriazol-5-yl)-(4-{4-[2-(4-chloro-phenyl)-cyclopropanecarbonyl]-piperazin-1-yl}-piperidin-1-yl)-methanone] was tested. Which IC50 did it give?
The IC50 was under 10 µM.

`O=C(OCc1ccc(C(F)(F)F)cc1)N1CCC(N2CCC(c3ccc4[nH]c(=O)oc4c3)=N2)CC1` [Compound 107, 4-[3-(2-Oxo-2,3-dihydro-benzooxazol-6-yl)-4,5-dihydro-pyrazol-1-yl]-piperidine-1-carboxylic acid 4-trifluoromethyl-benzyl ester] was tested. Which IC50 did it give?
The IC50 was under 10 µM.

`O=C(CC(=O)N1CCC(N2CCN(C(=O)c3ccc4[nH]nnc4c3)CC2)CC1)c1ccc(C(F)(F)F)cc1` [Compound 164, 1-{4-[4-(1H-Benzotriazole-5-carbonyl)-piperazin-1-yl]-piperidin-1-yl}-3-(4-trifluoromethyl-phenyl)-propane-1,3-dione] was tested. Which IC50 did it give?
Its IC50 is under 10 µM.

Which IC50 does the source give for `O=C(OCc1ccc(C(F)(F)F)cc1)N1CCC(NC2CCN(C(=O)c3ccc4[nH]nnc4c3)CC2)C1` (stereo not drawn) [Compound 68, 3-[1-(1H-Benzotriazole-5-carbonyl)-piperidin-4-ylamino]-pyrrolidine-1-carboxylic acid 4-trifluoromethyl-benzyl ester] here?
Its IC50 is under 10 µM.

How did the IC50 turn out when `O=C(Cc1ccc(Cl)cc1)C(=O)N1CCN(C2CCN(C(=O)c3ccc4[nH]nnc4c3)CC2)CC1` [Compound 123, 1-{4-[1-(1H-Benzotriazole-5-carbonyl)-piperidin-4-yl]-piperazin-1-yl}-3-(4-chloro-phenyl)-propane-1,2-dione] was run?
The IC50 was under 10 µM.

Which IC50 does the source give for `O=C(CCc1ccc(Cl)cc1F)N1CCC(N2CCN(C(=O)c3ccc4[nH]nnc4c3)CC2)CC1` [Compound 61, 1-{4-[4-(1H-Benzotriazole-5-carbonyl)-piperazin-1-yl]-piperidin-1-yl}-3-(4-chloro-2-fluoro-phenyl)-propan-1-one] here?
Its IC50 is under 10 µM.

For `O=C(CCc1ccc(C(F)(F)F)cc1)N1CCN(C2CCN(C(=O)c3ccc4[nH]nnc4c3)CC2)CC1` [Compound 32, 1-{4-[1-(1H-Benzotriazole-5-carbonyl)-piperidin-4-yl]-piperazin-1-yl}-3-(4-trifluoromethyl-phenyl)-propan-1-one], which IC50 is on record?
The IC50 was under 1 µM.

Which IC50 does the source give for `O=C(CCc1cc(Cl)cc(Cl)c1)N1CCN(C2CCN(C(=O)c3ccc4[nH]nnc4c3)CC2)CC1` [Compound 69, 1-{4-[1-(1H-Benzotriazole-5-carbonyl)-piperidin-4-yl]-piperazin-1-yl}-3-(3,5-dichloro-phenyl)-propan-1-one] here?
Its IC50 is under 10 µM.

With `O=C(CCc1ccc(C(F)(F)F)c(F)c1)N1CCN(C2CCN(C(=O)c3ccc4[nH]nnc4c3)CC2)CC1` [Compound 105, 1-{4-[1-(1H-Benzotriazole-5-carbonyl)-piperidin-4-yl]-piperazin-1-yl}-3-(3-fluoro-4-trifluoromethyl-phenyl)-propan-1-one] as the compound, how does the IC50 read?
The IC50 was under 1 µM.

With `O=C(Nc1ccc2[nH]c(=O)oc2c1)C1CC(=O)N(C2CCN(C(=O)OCc3cc(Cl)cc(Cl)c3)CC2)C1` (stereo not drawn) [Compound 15, 4-[2-Oxo-4-(2-oxo-2,3-dihydro-benzooxazol-6-ylcarbamoyl)-pyrrolidin-1-yl]-piperidine-1-carboxylic acid 3,5-dichloro-benzyl ester] as the compound, how does the IC50 read?
The IC50 was under 1 µM.

How did the IC50 turn out when `CS(=O)(=O)Nc1ccc(C(=O)N2CCN(C3CCN(C(=O)CCc4ccc(C(F)(F)F)cc4)CC3)CC2)cc1` [Compound 59, N-[4-(4-{1-[3-(4-Trifluoromethyl-phenyl)-propionyl]-piperidin-4-yl}-piperazine-1-carbonyl)-phenyl]-methanesulfonamide] was run?
The IC50 was under 10 µM.

For `O=C(OCc1ccc(C(F)(F)F)cc1)N1CCC(N2CCN(C(=O)c3ccc4[nH]nnc4c3)CC2)CC1` [Compound 71, 4-[4-(1H-Benzotriazole-5 carbonyl)-piperazin-1-yl]-piperidine-1-carboxylic acid 4-trifluoromethyl-benzyl ester], which IC50 is on record?
The IC50 was under 1 µM.

With `O=C(CCc1ccc(Cl)cc1F)N1CCC(NC2CCN(C(=O)c3ccc4[nH]nnc4c3)CC2)C1` (stereo not drawn) [Compound 66, 1-{3-[1-(1H-Benzotriazole-5-carbonyl)-piperidin-4-ylamino]-pyrrolidin-1-yl}-3-(4-chloro-2-fluoro-phenyl)-propan-1-one] as the compound, how does the IC50 read?
The IC50 was under 10 µM.

Which IC50 does the source give for `O=C(NCCc1ccccn1)C1CC(=O)N(C2CCN(C(=O)OCc3cc(Cl)cc(Cl)c3)CC2)C1` (stereo not drawn) [Compound 17, 4-[2-Oxo-4-(2-pyridin-2-yl-ethylcarbamoyl)-pyrrolidin-1-yl]-piperidine-1-carboxylic acid 3,5-dichloro-benzyl ester] here?
The IC50 was under 10 µM.

For `Cc1nc(-c2ccc(C(F)(F)F)cc2)sc1C(=O)N1CCN(C2CCN(C(=O)c3ccc4[nH]nnc4c3)CC2)CC1` [Compound 48, (1H-Benzotriazol-5-yl)-(4-{4-[4-methyl-2-(4-trifluoromethyl-phenyl)-thiazole-5-carbonyl]-piperazin-1-yl}-piperidin-1-yl)-methanone], which IC50 is on record?
Its IC50 is under 10 µM.

Which IC50 does the source give for `O=C(OCc1cn(-c2ccc(Cl)cc2)nn1)N1CCN(C2CCN(C(=O)c3ccc4[nH]nnc4c3)CC2)CC1` [Compound 131, 4-[1-(1H-Benzotriazole-5-carbonyl)-piperidin-4-yl]-piperazine-1-carboxylic acid 1-(4-chloro-phenyl)-1H-[1,2,3]triazol-4-ylmethyl ester] here?
The IC50 was under 30 µM.

Which IC50 does the source give for `O=C(OCc1ccc(OC(F)(F)F)c(Cl)c1)N1CCN(C2CCN(C(=O)c3ccc4[nH]nnc4c3)CC2)CC1` [Compound 101, 4-[1-(1H-Benzotriazole-5-carbonyl)-piperidin-4-yl]-piperazine-1-carboxylic acid 3-chloro-4-trifluoromethoxy-benzyl ester] here?
Its IC50 is under 1 µM.

For `O=C(CCc1cc(F)c(F)c(Cl)c1)N1CCN(C2CCN(C(=O)c3ccc4[nH]nnc4c3)CC2)CC1` [Compound 129, 1-{4-[1-(1H-Benzotriazole-5-carbonyl)-piperidin-4-yl]-piperazin-1-yl}-3-(3-chloro-4,5-difluoro-phenyl)-propan-1-one], which IC50 is on record?
Its IC50 is under 10 µM.
